According to ChEMBL document CHEMBL5576077, “A small-molecule degron with a phenylpropionic acid scaffold” (Bioorg Med Chem, 2024):
Calls of active or inactive are those of the source. The calls are words filed in the database; no cut-off is given here.

How the values were obtained:
[1] = biological target: T1, S-phase kinase-associated protein 2/Bifunctional ligase/repressor BirA (Homo sapiens) (UniProt P06709+Q13309); experiment: PROTAC activity at Skp2 in HeLa cells/N-terminal HaloTag7-fused TurboID (unknown origin) stably expressed in HeLa cells assessed as protein degradation at 30 uM incubated for 8 hrs by Western blot analysis; type: cell-based
[2] = biological target: T2, S-phase kinase-associated protein 2/Haloalkane dehalogenase (Homo sapiens) (UniProt Q13309+P0A3G3); experiment: PROTAC activity at Skp2 in HEK293 cells/HaloTag7-ELuc fusion protein (unknown origin) stably expressed in HEK293 cells assessed as protein degradation at 1 to 10 uM incubated for 24 hrs by Western blot analysis; type: cell-based; settings: dose 1-10 µM
[3] = biological target: T2, S-phase kinase-associated protein 2/Haloalkane dehalogenase (Homo sapiens); experiment: PROTAC activity at Skp2 in HEK293 cells/HaloTag7 fusion protein (unknown origin) stably expressed in HEK293 cells assessed as protein degradation by measuring test to control ratio at 0.3 uM incubated for 24 hrs by Western blot analysis; type: cell-based
[4] = biological target: T2, S-phase kinase-associated protein 2/Haloalkane dehalogenase (Homo sapiens); experiment: PROTAC activity at Skp2 in HEK293 cells/HaloTag7 fusion protein (unknown origin) stably expressed in HEK293 cells assessed as protein degradation by measuring test to control ratio at 3 uM incubated for 24 hrs by Western blot analysis; type: cell-based
[5] = biological target: T2, S-phase kinase-associated protein 2/Haloalkane dehalogenase (Homo sapiens); experiment: PROTAC activity at Skp2 in HEK293 cells/HaloTag7 fusion protein (unknown origin) stably expressed in HEK293 cells assessed as protein degradation by measuring test to control ratio at 1 uM incubated for 24 hrs by Western blot analysis; type: cell-based
[6] = biological target: T1, S-phase kinase-associated protein 2/Bifunctional ligase/repressor BirA (Homo sapiens); experiment: PROTAC activity at Skp2 in HeLa cells/N-terminal HaloTag7-fused TurboID (unknown origin) stably expressed in HeLa cells assessed as protein degradation at 30 uM incubated for 3 to 8 hrs in presence of MG132 by Western blot analysis; type: cell-based; settings: time 3-8 hrs
[7] = biological target: T1, S-phase kinase-associated protein 2/Bifunctional ligase/repressor BirA (Homo sapiens); experiment: PROTAC activity at Skp2 in HeLa cells/N-terminal HaloTag7-fused TurboID (unknown origin) stably expressed in HeLa cells assessed as protein degradation at 30 uM incubated for 8 hrs in presence of MLN4924 by Western blot analysis; type: cell-based
[8] = biological target: T1, S-phase kinase-associated protein 2/Bifunctional ligase/repressor BirA (Homo sapiens); experiment: PROTAC activity at Skp2 in HeLa cells/N-terminal HaloTag7-fused TurboID (unknown origin) stably expressed in HeLa cells assessed as protein degradation at 30 uM incubated for 3 to 8 hrs in presence of NH4Cl by Western blot analysis; type: cell-based; settings: time 3-8 hrs
[9] = Thermal stabilization of GST-fused HaloTag fusion protein (unknown origin) at 100 uM by SYPRO Orange dye based TSA assay
[10] = biological target: T1, S-phase kinase-associated protein 2/Bifunctional ligase/repressor BirA (Homo sapiens); experiment: PROTAC activity at Skp2 in HeLa cells/N-terminal HaloTag7-fused TurboID (unknown origin) stably expressed in HeLa cells assessed as protein degradation at 30 uM incubated for 3 to 8 hrs in presence of BafA by Western blot analysis; type: cell-based; settings: time 3-8 hrs
[11] = biological target: T1, S-phase kinase-associated protein 2/Bifunctional ligase/repressor BirA (Homo sapiens); experiment: PROTAC activity at Skp2 in HeLa cells/N-terminal HaloTag7-fused TurboID (unknown origin) stably expressed in HeLa cells assessed as protein degradation at 30 uM incubated for 3 to 8 hrs in presence of Epoxomicin by Western blot analysis; type: cell-based; settings: time 3-8 hrs
[12] = biological target: T1, S-phase kinase-associated protein 2/Bifunctional ligase/repressor BirA (Homo sapiens); experiment: PROTAC activity at Skp2 in HeLa cells/N-terminal HaloTag7-fused TurboID (unknown origin) stably expressed in HeLa cells assessed as protein degradation at 30 uM incubated for 3 hrs by Western blot analysis; type: cell-based

## O=C(O)COc1ccc(O)cc1/C=C1\SC(=S)N(Cc2cccnc2)C1=O
[1]
  Activity: inactive

## O=C(O)CCc1ccc(OCCCOCCCOCCCCCCCl)cc1/C=C1\SC(=S)N(Cc2cccnc2)C1=O
[2]
  Activity: Active

## O=C(O)CCc1ccc(OCCOCCOCCOCCOCCOCCCCCCCl)cc1/C=C1\SC(=S)N(Cc2cccnc2)C1=O
[3]
  T/C: 82
[4]
  T/C: 37
[5]
  T/C: 64

## O=C(O)CCc1ccc(OCCOCCOCCOCCOCCCCCCCl)cc1/C=C1\SC(=S)N(Cc2cccnc2)C1=O
[6]
  Activity: inactive
[7]
  Activity: Active
[8]
  Activity: Active
[9]
  Activity: Active
[10]
  Activity: Active
[4]
  T/C: 25
[11]
  Activity: inactive
[12]
  Activity: Active

## O=C(O)CCc1ccc(OCCOCCOCCOCCCCCCCl)cc1/C=C1\SC(=S)N(Cc2cccnc2)C1=O
[4]
  T/C: 81

## OCCOCCOCCOCCOCCCCCCCl
[1]
  Activity: inactive

## O=C(O)COc1ccc(OCCOCCOCCOCCOCCOCCCCCCCl)cc1/C=C1\SC(=S)N(Cc2cccnc2)C1=O
[3]
  T/C: 111
[4]
  T/C: 103
[5]
  T/C: 121
